# From the supplement of paper PMC5580409
# Test system: Plasmodium falciparum 3D7
# Experiment: pEC50, asexual blood-stage growth inhibition
# Conditions: 72 h
# Method: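 Held-out test set measured in the Guy lab in 2014 with the same procedure as the primary St. Jude screen. P. falciparum 3D7 blood-stage culture (2% hematocrit, 1% parasitemia) was treated with compound for 72 h at 37 °C, and growth was read by SYBR Green I fluorescence. EC50 came from a four-parameter Hill fit over a 10-point dilution series […].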
row,Structure (SMILES),pEC50
1,OC(CNCC1CCCO1)Cn1c2ccc(Br)cc2c2cc(Br)ccc21 (stereo not given),5.76
2,O=c1c(Oc2ccccc2Cl)c(C(F)(F)F)oc2c(CN3CCCCC3)c(O)ccc12,< 4.82
3,CCC(C)c1ccc(NC(=O)/C=C/c2cccc(Cl)c2)cc1 (stereo not given),< 4.82
4,Cc1cc(C)c(C)c(Oc2cc(NC(=O)c3c(I)cnn3C)cc([N+](=O)[O-])c2)c1,6.28
5,CCOC(=O)c1c(C)oc2cc(CN(C)C)c(O)cc12,5.29
6,Cc1ccccc1OCC(O)CNC1CCCCC1 (stereo not given),< 4.82
7,O=C(NC1C2CC3CC(C2)CC1C3)c1ccc2c(=O)n3c(nc2c1)CCCCC3 (stereo not given),< 4.82
8,OC(CNCc1ccc(-c2ccccc2)cc1)c1ccccc1 (stereo not given),< 4.82
9,CCN(CC)c1nc(Nc2cccc(Br)c2)nc(Nc2cc(C)ccc2C)n1,< 4.82
10,Cc1cccc(Oc2c(C(F)(F)F)oc3c(CN4CCN(C)CC4)c(O)ccc3c2=O)c1,5.27
11,Cc1ccc(NC(=O)/C=C/c2ccccc2Cl)cc1,5.46
12,Oc1ccc(Br)cc1CN1CCN(c2cccc(Cl)c2)CC1,6.06
13,CCn1c2ccccc2c2cc(CNC3CCCCC3)ccc21,< 4.82
14,CN1CCN(Cc2c(O)ccc3c(=O)c(Oc4ccc5ccccc5c4)c(C(F)(F)F)oc23)CC1,< 4.82
15,Cc1nn(C)c(C(=O)NNC(=O)Nc2ccc([N+](=O)[O-])cc2)c1Cl,6.93
16,OC(CNCCc1ccccc1)Cn1c2ccc(Br)cc2c2cc(Br)ccc21 (stereo not given),5.81
17,CCn1ncc(Cl)c1C(=O)Nc1ccc(C)c([N+](=O)[O-])c1,< 4.82
18,CCOC(=O)C1=C(C)NC2=C(C(=O)CC(c3ccc(OC)cc3)C2)C1c1cccc(F)c1 (stereo not given),6.13
19,CC(=O)Nc1cccc(Nc2nc(N3CCCCC3)nc(N(c3ccccc3)c3ccccc3)n2)c1,5.61
20,CCOC(=O)c1cnc2c(Cl)cccc2c1Nc1cccc(C(C)=O)c1,5.35
21,OC(CNC1CCCCC1)Cn1c2ccccc2c2ccccc21 (stereo not given),5.33
22,CCc1ccc(NC(=O)/C=C/c2ccccc2Cl)cc1,6.69
23,CCCn1nnnc1NCc1cc(Br)c(OCc2ccccc2)c(OC)c1,< 4.82
24,CCOC(=O)C1=C(C)NC2=C(C(=O)CC(c3ccc(OC)cc3)C2)C1c1cc(Br)c(O)c(OC)c1 (stereo not given),5.3
25,Cc1ccc(Nc2cc(N3CCN(C(=O)c4ccc(C)cc4)CC3)ncn2)cc1,6.13
26,Cc1cc(Cl)ccc1OCC(O)CNC1CCCC1 (stereo not given),5.18
27,CC(C)c1ccc(/C=C/C(=O)Nc2cccc(Cl)c2)cc1,< 4.82

row,Structure (SMILES),pEC50
1,Fc1ccccc1N1CCN(CC2CC3C=CC2C3)CC1 (stereo not given),< 4.82
2,Cc1cccc(Oc2c(C(F)(F)F)oc3c(CN4CCC(C)CC4)c(O)ccc3c2=O)c1,< 4.82
3,O=C(Cc1ccccc1)N1CCN(c2ccc([N+](=O)[O-])c(NC3CC3)c2)CC1,< 4.82
4,COc1cccc(-c2cc(C(=O)N3CCN(Cc4ccccc4)CC3)c3ccccc3n2)c1,< 4.82
5,Cc1ccc(OCC(O)CNC2CCCCC2)cc1 (stereo not given),5.83
6,O=S(=O)(c1ccccc1)N1CCC(CO)(Cc2ccccc2C(F)(F)F)CC1,< 4.82
7,Cc1cccc(NC(=O)CSc2nc(C)c(C)n2-c2ccccc2)c1C,< 4.82
8,Nc1cccc(-c2nc3cc(Oc4ccc5[nH]c(-c6cccc(N)c6)nc5c4)ccc3[nH]2)c1,< 4.82
9,OCCC1CN(Cc2cc(Cl)ccc2O)CCN1C1CCCCC1 (stereo not given),< 4.82
10,OC(CNc1cccc2ccccc12)Cn1c2ccc(Cl)cc2c2cc(Cl)ccc21 (stereo not given),5.36
11,Cc1ccc(C)c(OCC(O)CNC2CCCC2)c1 (stereo not given),< 4.82
12,COc1cc(OC)c([N+](=O)[O-])cc1/C=N/NC(=O)C1CC1(c1ccccc1)c1ccccc1 (stereo not given),< 4.82
13,COc1ccc(NCC(O)Cn2c3ccc(Cl)cc3c3cc(Cl)ccc32)c(OC)c1 (stereo not given),< 4.82
14,COc1cc(C2CC(=O)NC3=C2C(=O)CC(c2ccc(F)cc2)C3)c(OC)cc1Br (stereo not given),< 4.82
15,O=S(=O)(c1cccc(C(F)(F)F)c1)N1CCC(CO)(Cc2cccc(C(F)(F)F)c2)CC1,5.68
16,N=c1n(CCN2CCOCC2)c2ccccc2n1CC(O)COc1ccccc1 (stereo not given),< 4.82
17,CCOc1cc(C2C(C(=O)OCCOc3ccccc3)=C(C)NC3=C2C(=O)CC(c2ccc(Cl)cc2)C3)ccc1O (stereo not given),< 4.82
18,CC1=C(C(=O)OCCOc2ccccc2)C(c2cccc(O)c2)C2=C(CC(c3ccc(Cl)cc3)CC2=O)N1 (stereo not given),< 4.82
19,CCOc1ccc(-c2nonc2NC(=O)c2ccco2)cc1,6.71
20,O=C(NCC1CCCCC1)c1cn(C2CC2)cc(C(=O)NC2CCN(Cc3ccccc3)C2)c1=O (stereo not given),< 4.82
21,CN1CCN(CC(O)Cn2c3ccccc3c3cc(Cl)ccc32)CC1 (stereo not given),< 4.82
22,C=CCn1c(=O)/c(=C/C=C2\C=CN(CC)c3ccccc32)s/c1=C\c1sc(-c2ccccc2)c(-c2ccccc2)[n+]1CC,5.37
23,CN(C)CC(O)Cn1c2ccc(Cl)cc2c2cc(Cl)ccc21 (stereo not given),< 4.82
24,O=C(Nc1ccccc1)c1ccccc1OCC(O)CN(Cc1ccccc1)Cc1ccccc1 (stereo not given),6.31
25,C=CCn1c(=N)n(CC(O)c2cccc(Br)c2)c2ccccc21 (stereo not given),5.66
26,CCOc1cc2c(cc1OCC)C(c1ccc(O)cc1)NCC2 (stereo not given),< 4.82
27,OC(CNCCOc1ccccc1)Cn1c2ccccc2c2ccccc21 (stereo not given),< 4.82

row,Structure (SMILES),pEC50
1,Cc1ccc2c(c1)c1c3n2CCCN(Cc2ccccc2F)C3CCC1 (stereo not given),5.01
2,OC(CN1CCN(Cc2ccccc2)CC1)Cn1c2ccc(Cl)cc2c2cc(Cl)ccc21 (stereo not given),< 4.82
3,CCN(CC)CCN1C(=O)c2ccccc2NC1c1ccc(Br)cc1 (stereo not given),5.74
4,OCCC1CN(Cc2cc(Cl)ccc2O)CCN1Cc1ccccc1 (stereo not given),< 4.82
5,CCOC(=O)C1=C(C)NC2=C(C(=O)CC(c3ccccc3)C2)C1c1cc(Cl)c(O)c(OC)c1 (stereo not given),< 4.82
6,CCOc1ccc(C(O)Cn2c(=N)n(CCN3CCCCC3)c3ccccc32)cc1 (stereo not given),< 4.82
7,Cc1ccc2c(c1)c1c3n2CCCN(Cc2ccc(Br)cc2)C3CCC1 (stereo not given),< 4.82
8,N=c1n(CCN2CCCCC2)c2ccccc2n1CC(O)COc1ccc(Cl)cc1 (stereo not given),5.33
9,C=CCN1C(=O)CS/C1=C\c1sc2ccccc2[n+]1CC,5.31
10,O=C(NCC1CCCCC1)c1cn(C2CC2)cc(C(=O)NC2CCN(Cc3ccccc3)CC2)c1=O,< 4.82
11,OCCC1CN(Cc2cc(Cl)ccc2O)CCN1CCCc1ccccc1 (stereo not given),< 4.82
12,CN(C)c1ccc(NC(=O)C2CC2c2ccccc2)cc1 (stereo not given),< 4.82
13,OC(CNCc1cccc(Cl)c1)c1ccccc1 (stereo not given),< 4.82
14,COc1ccc(C)cc1S(=O)(=O)N1CCC(CO)(Cc2cccc(C(F)(F)F)c2)CC1,< 4.82
15,O=C(Nc1ccc(-c2nc3cc(-c4nc5cc(NC(=O)c6cccc7ccccc67)ccc5[nH]4)ccc3[nH]2)cc1)c1cccc2ccccc12,< 4.82
16,N=c1n(CCN2CCOCC2)c2ccccc2n1CC(O)COc1ccc(Cl)cc1 (stereo not given),< 4.82
17,CCCCN(CCCC)CC(O)COc1ccccc1[N+](=O)[O-] (stereo not given),7.13
18,OC(CNCCc1ccccc1)COc1ccccc1Cl (stereo not given),5.3
19,Cc1cc(OCC(O)CNC2CCCC2)ccc1Cl (stereo not given),6.61
20,CCCCn1c(=N)n(CC(=O)c2ccc(Br)cc2)c2ccccc21,< 4.82
21,CCOC(=O)c1cccc(NC(=O)CC2C(=O)N(c3ccc(F)cc3)C(=O)N2Cc2ccccn2)c1 (stereo not given),< 4.82
22,COc1ccc(CC2(CO)CCN(S(=O)(=O)c3cccc(C(F)(F)F)c3)CC2)cc1,< 4.82
23,OC(CNCc1ccc(OCc2ccccc2)cc1)c1ccccc1 (stereo not given),5.38
24,CCOc1cc(C2C(C(=O)OCCOc3ccccc3)=C(C)NC3=C2C(=O)CC(c2ccc(Cl)cc2)C3)cc(Cl)c1O (stereo not given),< 4.82
25,COc1ccc(Cl)cc1NCC(O)Cn1c2ccccc2c2ccccc21 (stereo not given),< 4.82
26,COc1ccccc1-c1c(C(F)(F)F)oc2c(CN(C)C3CCCCC3)c(O)ccc2c1=O,< 4.82
27,COc1ccc(CN2CCCn3c4c(c5cc(C)ccc53)CCCC42)cc1 (stereo not given),< 4.82

row,Structure (SMILES),pEC50
1,COc1ccc(OC)c(C2CC(=O)C3=C(C2)NC(=O)CC3c2ccc(Cl)cc2Cl)c1 (stereo not given),< 4.82
2,O=C(Nc1ccc(-c2nc3ccccc3[nH]2)cc1)c1cncc(Br)c1,5.35
3,Cc1onc(-c2c(Cl)cccc2Cl)c1C(=O)Nc1cc(Cl)ccc1Cl,6.54
4,COc1ccc(OC)c(C2CC(=O)NC3=C2C(=O)CC(c2ccc(OC)c(OC)c2)C3)c1 (stereo not given),< 4.82
5,CCOC(=O)C1=C(C)NC2=C(C(=O)CC(c3ccc(Cl)cc3)C2)C1c1cc(OC)c(OC)c(OC)c1 (stereo not given),< 4.82
6,Clc1ccc(CN2CCN(C3CC4CCC3C4)CC2)cc1 (stereo not given),< 4.82
7,Cc1ccc(OCC(O)CNC2CCCC2)cc1C (stereo not given),5.85
8,COc1ccc(CCNC(=O)c2cn(C3CCCCC3)cc(C(=O)NC(C)(C)C)c2=O)cc1,6.95
9,CN(C)c1nc(N(C#N)CCOc2ccccc2)nc(N2CCOCC2)n1,< 4.82
10,O=S(=O)(/C=C/c1ccccc1)N1CCC(CO)(Cc2cccc(C(F)(F)F)c2)CC1,< 4.82
11,OCCCNCC(O)Cn1c2ccccc2c2ccccc21 (stereo not given),< 4.82
12,OC(CNC1CCCCC1)COc1ccc(OCc2ccccc2)cc1 (stereo not given),< 4.82
13,c1cc(-c2nc3ccccc3[nH]2)nc(-c2nc3ccccc3[nH]2)c1,5.39
14,CN(C)c1ccc(NC(=O)/C=C/c2cccc(Cl)c2)cc1,6.39
15,COc1ccc(C(O)Cn2c(=N)n(CCN3CCCCC3)c3ccccc32)cc1 (stereo not given),< 4.82
16,COc1ccc(C2CC(=O)NC3=C2C(=O)CC(c2ccccc2)C3)cc1OC (stereo not given),5.34
17,O=C(CC1C(=O)N(c2cccc(F)c2)C(=O)N1CCc1ccccc1F)Nc1cccc(F)c1 (stereo not given),< 4.82
18,COc1ccc(C2C(C(=O)OCCOc3ccccc3)=C(C)NC3=C2C(=O)CC(c2ccc(Cl)cc2)C3)cc1 (stereo not given),< 4.82
19,OCCC1CN(Cc2cc(Cl)ccc2O)CCN1CCc1ccccc1 (stereo not given),< 4.82
20,Cc1cc(S(=O)(=O)N2CCC(CO)(Cc3cccc(C(F)(F)F)c3)CC2)c(C)cc1Cl,< 4.82
21,CCOc1ccccc1Oc1c(C(F)(F)F)oc2c(CN3CCCCCC3)c(O)ccc2c1=O,< 4.82
22,O=C(Cc1ccccc1)Nc1ccc(-c2nc3cc(NC(=O)Cc4ccccc4)ccc3[nH]2)cc1,< 4.82
23,O=C1CC(c2ccc(Cl)c([N+](=O)[O-])c2)C2=C(CC(c3cccs3)CC2=O)N1 (stereo not given),< 4.82
24,CCOC(=O)c1ccc(NC(=O)CC2C(=O)N(c3ccc(OC)cc3)C(=O)N2CCC(C)C)cc1 (stereo not given),< 4.82
